{"source": "patent US20200093103A1", "about": "“BREEDING WATER FOR ANGUILLIFORMES AND METHOD FOR REARING ANGUILLIFORMES” (SHIN NIPPON BIOMEDICAL LABORATORIES, LTD., priority 2016, published 2020)", "test_system": "Anguilla japonica leptocephali", "assay": "Induction of Anguilla japonica metamorphosis by T4 treatment in 23° C. breeding water", "assay_type": "in vivo", "parameters": "key: L: During life, no characteristics of metamorphosis seen.; Stage 1: Starting phase of metamorphosis. The rostral end is rounded, and intestinal degeneration starts.; Stage 2: Peak phase of metamorphosis. Intestinal degeneration becomes pronounced.; Stage 3: Late phase of metamorphosis.; Stage 4: Pre-glass eel stage. Almost the eel form, but the body height still remains", "text": "Stage 1: Starting phase of metamorphosis. The rostral end is rounded, and intestinal degeneration starts.\nStage 2: Peak phase of metamorphosis. Intestinal degeneration becomes pronounced. In the second half, the anus reaches to near the last vertical blood vessel (VBV last).\nStage 3: Late phase of metamorphosis. The preanal length (PAL) becomes equal to or shorter than the last vertical blood vessel length (VBV last Length) (PAL VBV last Length). The body height is apparently low.\nStage 4: Pre-glass eel stage. Almost the eel form, but the body height still remains. Melanophores on the body surface or endogenous melanophores are not yet seen.\nElver stage: Juvenile stage. Food intake can be identified.\nA thyroid hormone (e.g., thyroxine (T4)) is adjusted to 50 to 100 mM in a 1- to 2-mL volume messflask. As a solvent, known solvents (water, alcohol) can be used. Ethanol is preferably used as the solvent.\nFor example, using ethanol as a solvent, T4 adjusted to 50 mM is diluted 500-fold, 5,000-fold, and 50,000-fold, respectively, and adjusted to […], 1 μM, and 100 nM. A feed can be prepared in this manner.\nArtificial seawater is added to a breeding vessel, and 1/1000 of the […] T4 is added to prepare […] T4 breeding water.\nHalf of the breeding water is replaced every two days with breeding water of the same concentration. In the case where the concentration is changed, for example, in the case of changing from 10 nM to 2 nM, 80% to the breeding water is removed, and unadjusted artificial seawater is newly added to make 1 L.\nLeptocephali visually considered to have reached a total length of 40 mm (or may be 30 mm to 50 mm, may be 35 mm to 45 mm, or may also be 35 mm or more, 40 mm or more, or 45 mm or more) are selected, anesthetized with 2-phenoxyethanol, and then photographed, and the total length of each larva is measured using an image analyzing device.\nThe larvae are placed in 10 nM T4 breeding water and then placed in an incubator set at 23° C., and breeding is started. In first one week, observation is performed every two days, and half of the 10 nM T4 breeding water is replaced each time. The average amount of thyroid hormone in the breeding water in stage 1 is 1 nM to 100 nM, for example, and may also be 3 nM to 30 nM, or 5 nM to 20 nM.\nFor larvae visually judged to have reached the second half of stage 2, the concentration of the breeding water is changed. The breeding water is diluted 5-fold or 10-fold and adjusted to 2 nM or 1 nM T4, and breeding is continued. The average amount of thyroid hormone in the breeding water in stage 2 may be, as compared with the breeding water of stage 1, diluted 2-fold to 20-fold, diluted 3 to 15-fold, or diluted 5 to 10-fold as described above. The average amount of thyroid hormone in the breeding water in stage 2 is 0.1 nM to 20 nM, for example, and may also be 0.5 nM to 10 nM, 1 nM to 5 nM, or 1 nM to 2 nM.\nFor larvae visually judged to have reached stage 3, the breeding water is quickly changed 0.2 nM T4 breeding water, which is a 5-fold dilution of 1 nM T4 breeding water, and further changed to 0.1 nM T4 breeding water on the following day. […] Also, in larvae whose anus position has not reached the last vertical hemal spine, when they are judged to be on the brink of stage 3, the concentration is changed as above. The average amount of thyroid hormone in the breeding water in stage 3 may be, as compared with the breeding water of stage 2, diluted 2-fold to 50-fold, diluted 3 to 15-fold, diluted 4 to 6-fold, or diluted 5-fold as described above. The average amount of thyroid hormone in the breeding water in stage 3 is 0.01 nM to 2 nM, for example, and may also be 0.05 nM to 1 nM, 0.1 nM to 0.5 nM, or 0.1 nM to 0.2 nM. […] That is, the concentration may be changed such that the thyroid hormone becomes undetectable in the breeding water in the course of stage 3.\nIn stage 3, breeding is continuously performed in the 0.1 nM T4 breeding water. […]"}
{"molecule": "N[C@@H](Cc1cc(I)c(Oc2cc(I)c(O)c(I)c2)c(I)c1)C(=O)O", "note": "[T4, thyroxine]", "values": [{"measurement": "metamorphosis stage", "setting": "individual Exp. 5-2, 175 days old, total length 41.3 mm at start, c3 onward = treatment days 1,3,5,7,8,9,10,11,12,13,14,15,16,17,18, T4 (nM) 10,10,10,10,2,1,0.2,0.1,0.1,0.1,0.1,0.1, treatment day 14, T4 0.1 nM", "result": 3}, {"measurement": "metamorphosis stage", "setting": "individual Exp. 5-2, 175 days old, total length 41.3 mm at start, c3 onward = treatment days 1,3,5,7,8,9,10,11,12,13,14,15,16,17,18, T4 (nM) 10,10,10,10,2,1,0.2,0.1,0.1,0.1,0.1,0.1, treatment day 15, T4 0.1 nM", "result": 3}, {"measurement": "metamorphosis stage", "setting": "individual Exp. 5-2, 175 days old, total length 41.3 mm at start, c3 onward = treatment days 1,3,5,7,8,9,10,11,12,13,14,15,16,17,18, T4 (nM) 10,10,10,10,2,1,0.2,0.1,0.1,0.1,0.1,0.1, treatment day 16", "result": 4}, {"measurement": "metamorphosis stage", "setting": "individual Exp. 5-3, 175 days old, total length 41.7 mm at start, c3 onward = treatment days 1,3,5,7,8,9,10,11,12,13,14,15,16,17,18, T4 (nM) 10,10,10,10,2,1,0.2,0.1,0.1,0.1,0.1,0.1, treatment day 1, T4 10 nM", "result": "L"}, {"measurement": "metamorphosis stage", "setting": "individual Exp. 5-3, 175 days old, total length 41.7 mm at start, c3 onward = treatment days 1,3,5,7,8,9,10,11,12,13,14,15,16,17,18, T4 (nM) 10,10,10,10,2,1,0.2,0.1,0.1,0.1,0.1,0.1, treatment day 3, T4 10 nM", "result": "L"}, {"measurement": "metamorphosis stage", "setting": "individual Exp. 5-3, 175 days old, total length 41.7 mm at start, c3 onward = treatment days 1,3,5,7,8,9,10,11,12,13,14,15,16,17,18, T4 (nM) 10,10,10,10,2,1,0.2,0.1,0.1,0.1,0.1,0.1, treatment day 5, T4 10 nM", "result": 1}, {"measurement": "metamorphosis stage", "setting": "individual Exp. 5-3, 175 days old, total length 41.7 mm at start, c3 onward = treatment days 1,3,5,7,8,9,10,11,12,13,14,15,16,17,18, T4 (nM) 10,10,10,10,2,1,0.2,0.1,0.1,0.1,0.1,0.1, treatment day 7, T4 10 nM", "result": 2}, {"measurement": "metamorphosis stage", "setting": "individual Exp. 5-3, 175 days old, total length 41.7 mm at start, c3 onward = treatment days 1,3,5,7,8,9,10,11,12,13,14,15,16,17,18, T4 (nM) 10,10,10,10,2,1,0.2,0.1,0.1,0.1,0.1,0.1, treatment day 8, T4 2 nM", "result": 2}, {"measurement": "metamorphosis stage", "setting": "individual Exp. 5-3, 175 days old, total length 41.7 mm at start, c3 onward = treatment days 1,3,5,7,8,9,10,11,12,13,14,15,16,17,18, T4 (nM) 10,10,10,10,2,1,0.2,0.1,0.1,0.1,0.1,0.1, treatment day 9, T4 1 nM", "result": 2}, {"measurement": "metamorphosis stage", "setting": "individual Exp. 5-3, 175 days old, total length 41.7 mm at start, c3 onward = treatment days 1,3,5,7,8,9,10,11,12,13,14,15,16,17,18, T4 (nM) 10,10,10,10,2,1,0.2,0.1,0.1,0.1,0.1,0.1, treatment day 10, T4 0.2 nM", "result": 2}, {"measurement": "metamorphosis stage", "setting": "individual Exp. 5-3, 175 days old, total length 41.7 mm at start, c3 onward = treatment days 1,3,5,7,8,9,10,11,12,13,14,15,16,17,18, T4 (nM) 10,10,10,10,2,1,0.2,0.1,0.1,0.1,0.1,0.1, treatment day 11, T4 0.1 nM", "result": 3}, {"measurement": "metamorphosis stage", "setting": "individual Exp. 5-3, 175 days old, total length 41.7 mm at start, c3 onward = treatment days 1,3,5,7,8,9,10,11,12,13,14,15,16,17,18, T4 (nM) 10,10,10,10,2,1,0.2,0.1,0.1,0.1,0.1,0.1, treatment day 12, T4 0.1 nM", "result": 3}, {"measurement": "metamorphosis stage", "setting": "individual Exp. 5-3, 175 days old, total length 41.7 mm at start, c3 onward = treatment days 1,3,5,7,8,9,10,11,12,13,14,15,16,17,18, T4 (nM) 10,10,10,10,2,1,0.2,0.1,0.1,0.1,0.1,0.1, treatment day 13, T4 0.1 nM", "result": 3}, {"measurement": "metamorphosis stage", "setting": "individual Exp. 5-3, 175 days old, total length 41.7 mm at start, c3 onward = treatment days 1,3,5,7,8,9,10,11,12,13,14,15,16,17,18, T4 (nM) 10,10,10,10,2,1,0.2,0.1,0.1,0.1,0.1,0.1, treatment day 14, T4 0.1 nM", "result": 3}, {"measurement": "metamorphosis stage", "setting": "individual Exp. 5-3, 175 days old, total length 41.7 mm at start, c3 onward = treatment days 1,3,5,7,8,9,10,11,12,13,14,15,16,17,18, T4 (nM) 10,10,10,10,2,1,0.2,0.1,0.1,0.1,0.1,0.1, treatment day 15, T4 0.1 nM", "result": 3}, {"measurement": "metamorphosis stage", "setting": "individual Exp. 5-3, 175 days old, total length 41.7 mm at start, c3 onward = treatment days 1,3,5,7,8,9,10,11,12,13,14,15,16,17,18, T4 (nM) 10,10,10,10,2,1,0.2,0.1,0.1,0.1,0.1,0.1, treatment day 16", "result": 3}, {"measurement": "metamorphosis stage", "setting": "individual Exp. 5-3, 175 days old, total length 41.7 mm at start, c3 onward = treatment days 1,3,5,7,8,9,10,11,12,13,14,15,16,17,18, T4 (nM) 10,10,10,10,2,1,0.2,0.1,0.1,0.1,0.1,0.1, treatment day 17", "result": 3}, {"measurement": "metamorphosis stage", "setting": "individual Exp. 5-3, 175 days old, total length 41.7 mm at start, c3 onward = treatment days 1,3,5,7,8,9,10,11,12,13,14,15,16,17,18, T4 (nM) 10,10,10,10,2,1,0.2,0.1,0.1,0.1,0.1,0.1, treatment day 18", "result": 4}, {"measurement": "metamorphosis stage", "setting": "individual Exp. 5-6, 174 days old, total length 34.5 mm at start, c3 onward = treatment days 1,3,5,7,8,9,10,11,12,13,14,15,16,17,18,20,22, T4 (nM) 10,10,10,10,10,10,10,2,1,1,0.2,0.1,0.1,0.1,0.1,0.1,0.1, treatment day 1, T4 10 nM", "result": "L"}, {"measurement": "metamorphosis stage", "setting": "individual Exp. 5-6, 174 days old, total length 34.5 mm at start, c3 onward = treatment days 1,3,5,7,8,9,10,11,12,13,14,15,16,17,18,20,22, T4 (nM) 10,10,10,10,10,10,10,2,1,1,0.2,0.1,0.1,0.1,0.1,0.1,0.1, treatment day 3, T4 10 nM", "result": "L"}, {"measurement": "metamorphosis stage", "setting": "individual Exp. 5-6, 174 days old, total length 34.5 mm at start, c3 onward = treatment days 1,3,5,7,8,9,10,11,12,13,14,15,16,17,18,20,22, T4 (nM) 10,10,10,10,10,10,10,2,1,1,0.2,0.1,0.1,0.1,0.1,0.1,0.1, treatment day 5, T4 10 nM", "result": "L"}, {"measurement": "metamorphosis stage", "setting": "individual Exp. 5-6, 174 days old, total length 34.5 mm at start, c3 onward = treatment days 1,3,5,7,8,9,10,11,12,13,14,15,16,17,18,20,22, T4 (nM) 10,10,10,10,10,10,10,2,1,1,0.2,0.1,0.1,0.1,0.1,0.1,0.1, treatment day 7, T4 10 nM", "result": "L"}, {"measurement": "metamorphosis stage", "setting": "individual Exp. 5-6, 174 days old, total length 34.5 mm at start, c3 onward = treatment days 1,3,5,7,8,9,10,11,12,13,14,15,16,17,18,20,22, T4 (nM) 10,10,10,10,10,10,10,2,1,1,0.2,0.1,0.1,0.1,0.1,0.1,0.1, treatment day 8, T4 10 nM", "result": 2}, {"measurement": "metamorphosis stage", "setting": "individual Exp. 5-6, 174 days old, total length 34.5 mm at start, c3 onward = treatment days 1,3,5,7,8,9,10,11,12,13,14,15,16,17,18,20,22, T4 (nM) 10,10,10,10,10,10,10,2,1,1,0.2,0.1,0.1,0.1,0.1,0.1,0.1, treatment day 9, T4 10 nM", "result": 2}, {"measurement": "metamorphosis stage", "setting": "individual Exp. 5-6, 174 days old, total length 34.5 mm at start, c3 onward = treatment days 1,3,5,7,8,9,10,11,12,13,14,15,16,17,18,20,22, T4 (nM) 10,10,10,10,10,10,10,2,1,1,0.2,0.1,0.1,0.1,0.1,0.1,0.1, treatment day 10, T4 10 nM", "result": 2}]}
